Laboratory results as given in patent US5602278A (priority 1994, dated 1997).
Entries after “also recorded” stand apart in the source; their conditions may differ.

How the values were obtained:
[1] = tested on: EMT6 mouse mammary carcinoma cells
[2] = tested on: CaNT murine adenocarcinoma; design: species or system CBA/Gy fTO mice; settings: mouse
[3] = In vitro metabolism by rat liver microsomes under hypoxic or oxic conditions
hypoxic cells = settings: Wilson et al., 1992; cited from earlier work

In the case of O=C(O)CCCc1ccc(N(CCCl)OCCCl)cc1 [CHL-HD, 4-[p-(N-2-chloroethoxy N-2-chloroethylamino)phenyl] butanoic acid], the in vivo toxicity was “minimal in vivo toxicity”, the “effect of hypoxia and lowered pH on cytotoxicity” value [1] was “both hypoxia and lowered pH in the presence of reducing enzymes potentiate to cytotoxicity” and the “effect of lowered extracellular pH on activity” value [1] was “enhance when the extracellular pH is lowered below the physiological 7.4”. The “toxicity with reducing enzymes under hypoxia” value [1] was “greater toxicity with reducing enzymes under hypoxia”, the “potentiation of in vivo cytotoxicity by hydralazine” value [2] was “potentiated by the administration of hydralazine 5 min prior or 30 post; also recorded: potentiated by hydralazine” and the “activity compared to radiation, with concomitant hydralazine” value ([2]; in vivo) was “enhanced activity as compared to radiation”. For the same compound, the “dependence of rate of metabolism on amount of cyt P450” value ([3]; hypoxia, NADPH 1 mM, microsomes 2.0-5.2 nmol cyt P450/ml) was “there is a relationship between the amount of cyt P450 in the metabolic reaction mixture and the rate of metabolism”, the metabolism ([3]; in air or in the presence of boiled microsomes) was “very little if any metabolism” and the “metabolism with NADPH” value ([3]; in the presence of NADPH, microsomes, hypoxia) was “metabolism occurs more readily at lower concentrations of cofactor”. The “major enzyme responsible for activation” value ([3]; microsomal bioreductive activation) was “appears to be cyt P450”, the “effect of CO on reductive metabolism” value ([3]; microsomes 2.9 nmol cyt P450/ml, NADPH 1 mM, hypoxia) was “CO inhibits the ability of microsomes to metabolize CHL-HD” and the metabolism ([3]; microsomes and cofactors NADH or NADPH, under hypoxia) was “is metabolized”. For the same compound, the “conditions required for conversion to an activated alkylating species” value ([3]; rat liver microsomes, cofactors, inhibitors) was “reducing enzymes, co-factors and hypoxia were needed to activate CHL-HD to an alkylating species; also recorded: requires hypoxia and reducing enzymes and cofactors”.

For C[N+](C)([O-])CCCNc1c2ccccc2nc2cccc([N+](=O)[O-])c12 [SN 24030], the “ability to diffuse into the extravascular compartment of tumors” value (hypoxic cells) is given as “improved ability to diffuse into the extravascular compartment of tumors” and the “selectivity for hypoxic cells” value (hypoxic cells) is given as “approximately 1500 fold”.
